Tested on: KCNQ channels
Assay: Thallium flux assay for KCNQ channel openers
Type: cell-based
Details: HEK-293 cells stably transfected with a KCNQ family member; for Min conc. response: minimal active concentration: lowest concentration giving signal >= 4 SD of negative controls; for EC50: thallium flux, 10 point concentration series
Method: Thallium Flux Assay for KCNQ Channel Openers.
The thallium assay is a modification of that published by Weaver and is referenced in its entirety (Weaver, C. D. WO 02/31508, 2002).
Approximately 20,000 cells/well of an HEK-293 cell line stably transfected with one of the members of the KCNQ family were plated into clear-bottom, black-walled, poly-D-lysine coated, 384 well assay plates in 20 μl/well of low chloride plating medium. Low chloride plating medium was composed of the following: sodium gluconate, 109 mM; potassium gluconate, 5.4 mM; hemi-calcium gluconate, 3.6 mM; magnesium sulfate, 0.8 mM; sodium bicarbonate, 26.2 mM; sodium phosphate monobasic, 1.2 mM; glutamine, 2 mM; glucose, 5 mM; 4-(2-hydroxyethyl)-1-piperazineethanesulfonic acid (HEPES) (pH 7.3) 10 mM, MEM vitamin solution (10× concentration of vitamins, Gibco/LifeTechnologies 11120-052) and MEM amino acid solution (1× concentration of amino acids, Gibco/LifeTechnologies 11130-051).
Following overnight incubation in a 5% CO2 incubator at 37° C., the cells in the plates were loaded with 20 μl/well of a dye loading solution containing the commercially available thallium-sensitive fluorescent dye BTC-AM, the acetomethoxy ester of BTC (see U.S. Pat. No. 5,501,980) (2 μM) and pluronic acid F-127 (Molecular Probes P 6867) (0.02% w/v) in chloride free assay buffer. Chloride free assay buffer was composed of the following: sodium gluconate, 140 mM; potassium gluconate, 2.5 mM; hemi-calcium gluconate, 6 mM; hemi-magnesium gluconate, 2 mM; glucose, 5 mM; HEPES (pH 7.3), 10 mM.
Following incubation in the dye loading solution for from 45-90 min at room temperature, the dye loading solution was removed by aspiration and replaced with 40 μl/well of chloride free assay buffer.
Prior to addition to cell plates, test compound and standard compounds were dissolved in DMSO to 3 mM concentration. Compounds were then diluted from the 3 mM stock to 100-fold over the final assay concentration in DMSO. Finally, compounds in DMSO were diluted from 100-fold over the final assay concentration to 5-fold over the final assay concentration in chloride free assay buffer.
Ten μl/well of compounds at 5-fold over the final assay concentration were then added to the cell plates. This represents a 1:5 dilution, yielding the final test concentration. The wells used for test compounds were A1-P20. Wells A21-P22 contained a standard opener and a maximally efficacious concentration (positive control). Wells A23-P24 contained chloride free assay buffer containing 1% DMSO (negative control).
Following addition of test compounds, the plates were loaded onto the Molecular Devices FLIPR. The 488 nm line of the argon laser was used to excite the BTC and the emission filter was a 540(+/−30) nm. Images were collected at 1 Hz. Ten seconds of baseline were collected and then the FLIPR was used to add 13 μl/well of a stimulus buffer composed of 7.5 mM Tl2SO4 in chloride free assay buffer. Images were collected for an additional 60 seconds.
For data analysis, the amplitude of the average of the negative controls was subtracted from all wells. The amplitudes of the test compounds were then compared to the value of four standard deviations of the negative control wells. The lowest concentration of a test compound sufficient to generate a signal amplitude greater than or equal to four standard deviations from the amplitude of the negative controls was defined as the minimal active concentration.
For generating EC50 values, compounds were serially diluted in 1:3 volume increments to produce a 10 point concentration series. EC50 values were calculated by fitting the resulting amplitudes to a single-site logistic equation. EC50 was defined as the concentration of test compound required to yield 50% of the maximal response. Maximal response (Maximal opening) was the largest signal amplitude divided by the negative control amplitude generated by any concentration of a test compound. […]

SMILES: CC(NC(=O)c1sc(C(O)CN2CCOCC2)nc1C(F)(F)F)c1cccc(C(F)(F)F)c1 (stereo not shown) [Example 52, 2-[1-hydroxy-2-(4-morpholinyl)ethyl]-4-(trifluoromethyl)-N-[1-[3-(trifluoromethyl)phenyl]ethyl]-5-thiazolecarboxamide]
- Min conc. response: 10 µM

SMILES: CCCN(CCc1nc(C(F)(F)F)c(C(=O)NC(C)c2cccc(OC(F)(F)F)c2)s1)CC1CC1 (stereo not shown) [Example 28, 2-[2-[(cyclopropylmethyl)propylamino]ethyl]-N-[1-[3-(trifluoromethoxy)phenyl]ethyl]-4-(trifluoromethyl)-5-thiazolecarboxamide]
- Min conc. response: 0.3 µM
- EC50: < 0.05 µM

SMILES: CCCN(CCc1nc(C(F)(F)F)c(C(=O)NC(C)c2cccc(N(C)C)c2)s1)CC1CC1 (stereo not shown) [Example 29, 2-[2-[(cyclopropylmethyl)propylamino]ethyl]-N-[1-[3-(dimethylamino)phenyl]ethyl]-4-(trifluoromethyl)-5-thiazolecarboxamide]
- Min conc. response: 3 µM
- EC50: 1 to 20 µM

SMILES: CCN(CC)CC(O)c1nc(C(F)(F)F)c(C(=O)N[C@@H](C)c2cccc(-c3cccnc3)c2)s1 (stereo partly drawn) [Example 50, 2-[2-(diethylamino)-1-hydroxyethyl]-N-[(1S)-1-[3-(3-pyridinyl)phenyl]ethyl]-4-(trifluoromethyl)-5-thiazolecarboxamide]
- Min conc. response: 0.3 µM

SMILES: CCCN(CCc1nc(C(F)(F)F)c(C(=O)NC(C)c2cccc(C(F)(F)F)c2)s1)CC1CC1 (stereo not shown) [Example 30, 2-[2-[(cyclopropylmethyl)propylamino]ethyl]-N-[1-[3-(trifluoromethyl)phenyl]ethyl]-4-(trifluoromethyl)-5-thiazolecarboxamide]
- Min conc. response: 3 µM
- EC50: < 0.05 µM

SMILES: CC(NC(=O)c1sc(C(O)CN2CCCCC2)nc1C(F)(F)F)c1cccc(OC(F)(F)F)c1 (stereo not shown) [Example 41, 2-[1-hydroxy-2-(1-piperidinyl)ethyl]-N-[1-[3-(trifluoromethoxy)phenyl]ethyl]-4-(trifluoromethyl)-5-thiazolecarboxamide]
- Min conc. response: 30 µM
- EC50: 1 to 20 µM

SMILES: C[C@H](NC(=O)c1sc(CCN2CCOCC2)nc1C(F)(F)F)c1cccc(N2CCOCC2)c1 [Example 45, 2-[2-(4-morpholinyl)ethyl]-N-[(1S)-1-[3-(4-morpholinyl)phenyl]ethyl]-4-(trifluoromethyl)-5-thiazolecarboxamide]
- Min conc. response: 3 µM

SMILES: CC(NC(=O)c1sc(CCN(C)CCN(C)C)nc1C(F)(F)F)c1cccc(N(C)C)c1 (stereo not shown) [Example 47, 2-[2-[[2-(dimethylamino)ethyl]methylamino]ethyl]-N-[1-[3-(dimethylamino)phenyl]ethyl]-4-(trifluoromethyl)-5-thiazolecarboxamide]
- Min conc. response: 0.3 µM

SMILES: CC(NC(=O)c1sc(CCN2CCCCC2)nc1C(F)(F)F)c1cccc(C(F)(F)F)c1 (stereo not shown) [Example 24, 2-[2-(1-piperidinyl)ethyl]-N-[1-[3-(3-trifluoromethyl)phenyl]ethyl]-4-(trifluoromethyl)-5-thiazolecarboxamide]
- Min conc. response: 0.3 µM
- EC50: 1 to 20 µM

SMILES: CCN(CC)CC(O)c1nc(C(F)(F)F)c(C(=O)N[C@@H](C)c2cccc(N3CCOCC3)c2)s1 (stereo partly drawn) [Example 49, 2-[2-(diethylamino)-1-hydroxyethyl]-N-[(1S)-1-[3-(4-morpholinyl)phenyl]ethyl]-4-(trifluoromethyl)-5-thiazolecarboxamide]
- Min conc. response: 30 µM

SMILES: C[C@H](NC(=O)c1sc(C(O)CN2CCN(C)CC2)nc1C(F)(F)F)c1cccc(N2CCOCC2)c1 (stereo partly drawn) [Example 54, 2-[1-hydroxy-2-(4-methyl-1-piperazinyl)ethyl]-N-[(1S)-1-[3-(4-morpholinyl)phenyl]ethyl]-4-(trifluoromethyl)-5-thiazolecarboxamide]
- Min conc. response: 0.3 µM

SMILES: CC(NC(=O)c1sc(CCN2CCSCC2)nc1C(F)(F)F)c1cccc(N(C)C)c1 (stereo not shown) [Example 46, N-[1-[3-(dimethylamino)phenyl]ethyl]-2-[2-(4-thiomorpholinyl)ethyl]-4-(trifluoromethyl)-5-thiazolecarboxamide]
- Min conc. response: 3 µM

SMILES: CCC(CC)NCCc1nc(C(F)(F)F)c(C(=O)NC(C)c2cccc(C(F)(F)F)c2)s1 (stereo not shown) [Example 34, 2-[2-(3-pentylamino)ethyl]-N-[1-[3-(trifluoromethyl)phenyl]ethyl]-4-(trifluoromethyl)-5-thiazolecarboxamide]
- Min conc. response: 3 µM
- EC50: 1 to 20 µM

SMILES: C[C@H](NC(=O)c1sc(CCNCc2ccco2)nc1C(F)(F)F)c1cccc(-c2cccnc2)c1 [Example 35, 2-[2-[(2-furanylmethyl)amino]ethyl]-N-[1-[3-(3-pyridinyl)phenyl]ethyl]-4-(trifluoromethyl)-5-thiazolecarboxamide]
- Min conc. response: 10 µM
- EC50: 1 to 20 µM

SMILES: CC(NC(=O)c1sc(CCN2CCCC2)nc1C(F)(F)F)c1cccc(N(C)C)c1 (stereo not shown) [Example 9, N-[1-[3-(dimethylamino)phenyl]ethyl]-2-[2-(1-pyrrolidinyl)ethyl]-4-(trifluoromethyl)-5-thiazolecarboxamide]
- Min conc. response: 10 µM
- EC50: 1 to 20 µM

SMILES: COCCN(CCOC)CCc1nc(C(F)(F)F)c(C(=O)N[C@@H](C)c2cccc(-c3cccnc3)c2)s1 [Example 40]
- Min conc. response: 30 µM
- EC50: 0.05 to 1 µM

SMILES: CC(NC(=O)c1sc(CCN(C)CCN(C)C)nc1C(F)(F)F)c1cccc(OC(F)(F)F)c1 (stereo not shown) [Example 19]
- Min conc. response: 3 µM
- EC50: 1 to 20 µM

SMILES: C[C@H](NC(=O)c1sc(CCNC2CCCC2)nc1C(F)(F)F)c1cccc(-c2cccnc2)c1 [Example 37]
- Min conc. response: 30 µM
- EC50: 1 to 20 µM

SMILES: CC(NC(=O)c1sc(C(O)CN2CCCC2)nc1C(F)(F)F)c1cccc(N(C)C)c1 (stereo not shown) [Example 58, N-[1-[3-(dimethylamino)phenyl]ethyl]-2-[1-hydroxy-2-(1-pyrrolidinyl)ethyl]-4-(trifluoromethyl)-5-thiazolecarboxamide]
- Min conc. response: 0.3 µM

SMILES: CC(NC(=O)c1sc(C(O)CN2CCOCC2)nc1C(F)(F)F)c1cccc(OC(F)(F)F)c1 (stereo not shown) [Example 51, 2-[1-hydroxy-2-(4-morpholinyl)ethyl]-N-[1-[3-(trifluoromethoxy)phenyl]ethyl]-4-(trifluoromethyl)-5-thiazolecarboxamide]
- Min conc. response: 0.3 µM

SMILES: CCCN(CC1CC1)CC(O)c1nc(C(F)(F)F)c(C(=O)NC(C)c2cccc(C(F)(F)F)c2)s1 (stereo not shown) [Example 60, 2-[2-[(cyclopropylmethyl)propylamino]-1-hydroxyethyl]-4-(trifluoromethyl)-N-[1-[3-(trifluoromethyl)phenyl]ethyl]-5-thiazolecarboxamide]
- Min conc. response: 3 µM

SMILES: CCN(CC)CCc1nc(C(F)(F)F)c(C(=O)NC(C)c2cccc(N(C)C)c2)s1 (stereo not shown) [Example 16, 2-[2-(diethylamino)ethyl]-N-[1-[3-(dimethylamino)phenyl]ethyl]-4-(trifluoromethyl)-5-thiazolecarboxamide]
- Min conc. response: 0.3 µM
- EC50: 1 to 20 µM

SMILES: CC(NC(=O)c1sc(CCN(C)CCN(C)C)nc1C(F)(F)F)c1cccc(C(F)(F)F)c1 (stereo not shown) [Example 20]
- Min conc. response: 30 µM
- EC50: 1 to 20 µM

SMILES: CCN(CC)CCc1nc(C(F)(F)F)c(C(=O)N[C@@H](C)c2cccc(-c3cccnc3)c2)s1 [Example 31]
- Min conc. response: 0.3 µM
- EC50: 1 to 20 µM

SMILES: C[C@H](NC(=O)c1sc(CCN2CCCCC2)nc1C(F)(F)F)c1cccc(N2CCOCC2)c1 [Example 25, N-[1-[3-(4-morpholinyl)phenyl]ethyl]-2-[2-(1-piperidinyl)ethyl]-4-(trifluoromethyl)-5-thiazolecarboxamide]
- Min conc. response: 3 µM
- EC50: 1 to 20 µM
